Measured values as given in ChEMBL document CHEMBL1667792, “DNA-dependent protein kinase (DNA-PK) inhibitors: structure-activity relationships for O-alkoxyphenylchromen-4-one probes of the ATP-binding domain” (Bioorg Med Chem Lett, 2011).
pIC50: −log10 of the molar value.

How the values were obtained:
[1] = target: DNA-dependent protein kinase catalytic subunit (Homo sapiens, UniProt P78527)
[2] = target: Phosphatidylinositol 4,5-bisphosphate 3-kinase catalytic subunit alpha isoform (Homo sapiens, UniProt P42336); test: Inhibition of PI3Kalpha after 80 mins
[3] = tested on: HeLa; test: Potentiation of ionising radiation-induced DNA damaging activity in human HeLa cells assessed as dose modification ratio at 0.5 uM treated 1 hr before ionising radiation challenge followed by washout measured after 6 to 8 days by Giemsa staining; type: functional
[4] = tested on: HeLa; test: Potentiation of ionising radiation-induced DNA damaging activity in human HeLa cells assessed as dose modification ratio at 0.1 uM treated 1 hr before ionising radiation challenge followed by washout measured after 6 to 8 days by Giemsa staining; type: functional

Sequence of Phosphatidylinositol 4,5-bisphosphate 3-kinase catalytic subunit alpha isoform (P42336 whole entry, canonical isoform): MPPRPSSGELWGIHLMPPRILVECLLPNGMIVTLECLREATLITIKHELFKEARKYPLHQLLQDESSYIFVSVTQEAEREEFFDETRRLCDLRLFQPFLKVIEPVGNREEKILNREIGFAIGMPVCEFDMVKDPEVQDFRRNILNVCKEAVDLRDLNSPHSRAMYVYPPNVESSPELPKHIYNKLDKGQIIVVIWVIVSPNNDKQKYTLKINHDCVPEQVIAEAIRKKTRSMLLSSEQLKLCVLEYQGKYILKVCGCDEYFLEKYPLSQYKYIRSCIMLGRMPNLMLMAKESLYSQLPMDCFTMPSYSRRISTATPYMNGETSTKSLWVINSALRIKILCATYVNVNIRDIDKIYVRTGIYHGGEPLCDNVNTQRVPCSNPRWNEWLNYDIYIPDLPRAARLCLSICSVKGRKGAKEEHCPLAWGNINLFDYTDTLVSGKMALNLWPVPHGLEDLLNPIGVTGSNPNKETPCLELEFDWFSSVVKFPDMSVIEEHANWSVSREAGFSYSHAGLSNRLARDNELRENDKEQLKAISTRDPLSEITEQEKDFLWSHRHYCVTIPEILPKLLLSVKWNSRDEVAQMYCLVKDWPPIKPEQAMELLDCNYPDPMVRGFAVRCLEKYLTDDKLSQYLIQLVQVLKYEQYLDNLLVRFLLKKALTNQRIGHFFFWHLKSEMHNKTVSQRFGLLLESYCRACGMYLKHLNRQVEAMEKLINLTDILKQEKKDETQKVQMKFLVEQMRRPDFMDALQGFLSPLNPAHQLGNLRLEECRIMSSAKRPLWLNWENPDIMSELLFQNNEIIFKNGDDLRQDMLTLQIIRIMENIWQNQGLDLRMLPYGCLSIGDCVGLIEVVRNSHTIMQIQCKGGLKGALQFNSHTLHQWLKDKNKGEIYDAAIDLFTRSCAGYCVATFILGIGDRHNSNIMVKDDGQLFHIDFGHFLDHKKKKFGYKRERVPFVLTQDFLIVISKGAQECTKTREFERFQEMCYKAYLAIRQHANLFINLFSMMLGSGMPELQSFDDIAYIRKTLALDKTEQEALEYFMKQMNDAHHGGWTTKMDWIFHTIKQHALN
Sequence of DNA-dependent protein kinase catalytic subunit (P78527 whole entry, canonical isoform): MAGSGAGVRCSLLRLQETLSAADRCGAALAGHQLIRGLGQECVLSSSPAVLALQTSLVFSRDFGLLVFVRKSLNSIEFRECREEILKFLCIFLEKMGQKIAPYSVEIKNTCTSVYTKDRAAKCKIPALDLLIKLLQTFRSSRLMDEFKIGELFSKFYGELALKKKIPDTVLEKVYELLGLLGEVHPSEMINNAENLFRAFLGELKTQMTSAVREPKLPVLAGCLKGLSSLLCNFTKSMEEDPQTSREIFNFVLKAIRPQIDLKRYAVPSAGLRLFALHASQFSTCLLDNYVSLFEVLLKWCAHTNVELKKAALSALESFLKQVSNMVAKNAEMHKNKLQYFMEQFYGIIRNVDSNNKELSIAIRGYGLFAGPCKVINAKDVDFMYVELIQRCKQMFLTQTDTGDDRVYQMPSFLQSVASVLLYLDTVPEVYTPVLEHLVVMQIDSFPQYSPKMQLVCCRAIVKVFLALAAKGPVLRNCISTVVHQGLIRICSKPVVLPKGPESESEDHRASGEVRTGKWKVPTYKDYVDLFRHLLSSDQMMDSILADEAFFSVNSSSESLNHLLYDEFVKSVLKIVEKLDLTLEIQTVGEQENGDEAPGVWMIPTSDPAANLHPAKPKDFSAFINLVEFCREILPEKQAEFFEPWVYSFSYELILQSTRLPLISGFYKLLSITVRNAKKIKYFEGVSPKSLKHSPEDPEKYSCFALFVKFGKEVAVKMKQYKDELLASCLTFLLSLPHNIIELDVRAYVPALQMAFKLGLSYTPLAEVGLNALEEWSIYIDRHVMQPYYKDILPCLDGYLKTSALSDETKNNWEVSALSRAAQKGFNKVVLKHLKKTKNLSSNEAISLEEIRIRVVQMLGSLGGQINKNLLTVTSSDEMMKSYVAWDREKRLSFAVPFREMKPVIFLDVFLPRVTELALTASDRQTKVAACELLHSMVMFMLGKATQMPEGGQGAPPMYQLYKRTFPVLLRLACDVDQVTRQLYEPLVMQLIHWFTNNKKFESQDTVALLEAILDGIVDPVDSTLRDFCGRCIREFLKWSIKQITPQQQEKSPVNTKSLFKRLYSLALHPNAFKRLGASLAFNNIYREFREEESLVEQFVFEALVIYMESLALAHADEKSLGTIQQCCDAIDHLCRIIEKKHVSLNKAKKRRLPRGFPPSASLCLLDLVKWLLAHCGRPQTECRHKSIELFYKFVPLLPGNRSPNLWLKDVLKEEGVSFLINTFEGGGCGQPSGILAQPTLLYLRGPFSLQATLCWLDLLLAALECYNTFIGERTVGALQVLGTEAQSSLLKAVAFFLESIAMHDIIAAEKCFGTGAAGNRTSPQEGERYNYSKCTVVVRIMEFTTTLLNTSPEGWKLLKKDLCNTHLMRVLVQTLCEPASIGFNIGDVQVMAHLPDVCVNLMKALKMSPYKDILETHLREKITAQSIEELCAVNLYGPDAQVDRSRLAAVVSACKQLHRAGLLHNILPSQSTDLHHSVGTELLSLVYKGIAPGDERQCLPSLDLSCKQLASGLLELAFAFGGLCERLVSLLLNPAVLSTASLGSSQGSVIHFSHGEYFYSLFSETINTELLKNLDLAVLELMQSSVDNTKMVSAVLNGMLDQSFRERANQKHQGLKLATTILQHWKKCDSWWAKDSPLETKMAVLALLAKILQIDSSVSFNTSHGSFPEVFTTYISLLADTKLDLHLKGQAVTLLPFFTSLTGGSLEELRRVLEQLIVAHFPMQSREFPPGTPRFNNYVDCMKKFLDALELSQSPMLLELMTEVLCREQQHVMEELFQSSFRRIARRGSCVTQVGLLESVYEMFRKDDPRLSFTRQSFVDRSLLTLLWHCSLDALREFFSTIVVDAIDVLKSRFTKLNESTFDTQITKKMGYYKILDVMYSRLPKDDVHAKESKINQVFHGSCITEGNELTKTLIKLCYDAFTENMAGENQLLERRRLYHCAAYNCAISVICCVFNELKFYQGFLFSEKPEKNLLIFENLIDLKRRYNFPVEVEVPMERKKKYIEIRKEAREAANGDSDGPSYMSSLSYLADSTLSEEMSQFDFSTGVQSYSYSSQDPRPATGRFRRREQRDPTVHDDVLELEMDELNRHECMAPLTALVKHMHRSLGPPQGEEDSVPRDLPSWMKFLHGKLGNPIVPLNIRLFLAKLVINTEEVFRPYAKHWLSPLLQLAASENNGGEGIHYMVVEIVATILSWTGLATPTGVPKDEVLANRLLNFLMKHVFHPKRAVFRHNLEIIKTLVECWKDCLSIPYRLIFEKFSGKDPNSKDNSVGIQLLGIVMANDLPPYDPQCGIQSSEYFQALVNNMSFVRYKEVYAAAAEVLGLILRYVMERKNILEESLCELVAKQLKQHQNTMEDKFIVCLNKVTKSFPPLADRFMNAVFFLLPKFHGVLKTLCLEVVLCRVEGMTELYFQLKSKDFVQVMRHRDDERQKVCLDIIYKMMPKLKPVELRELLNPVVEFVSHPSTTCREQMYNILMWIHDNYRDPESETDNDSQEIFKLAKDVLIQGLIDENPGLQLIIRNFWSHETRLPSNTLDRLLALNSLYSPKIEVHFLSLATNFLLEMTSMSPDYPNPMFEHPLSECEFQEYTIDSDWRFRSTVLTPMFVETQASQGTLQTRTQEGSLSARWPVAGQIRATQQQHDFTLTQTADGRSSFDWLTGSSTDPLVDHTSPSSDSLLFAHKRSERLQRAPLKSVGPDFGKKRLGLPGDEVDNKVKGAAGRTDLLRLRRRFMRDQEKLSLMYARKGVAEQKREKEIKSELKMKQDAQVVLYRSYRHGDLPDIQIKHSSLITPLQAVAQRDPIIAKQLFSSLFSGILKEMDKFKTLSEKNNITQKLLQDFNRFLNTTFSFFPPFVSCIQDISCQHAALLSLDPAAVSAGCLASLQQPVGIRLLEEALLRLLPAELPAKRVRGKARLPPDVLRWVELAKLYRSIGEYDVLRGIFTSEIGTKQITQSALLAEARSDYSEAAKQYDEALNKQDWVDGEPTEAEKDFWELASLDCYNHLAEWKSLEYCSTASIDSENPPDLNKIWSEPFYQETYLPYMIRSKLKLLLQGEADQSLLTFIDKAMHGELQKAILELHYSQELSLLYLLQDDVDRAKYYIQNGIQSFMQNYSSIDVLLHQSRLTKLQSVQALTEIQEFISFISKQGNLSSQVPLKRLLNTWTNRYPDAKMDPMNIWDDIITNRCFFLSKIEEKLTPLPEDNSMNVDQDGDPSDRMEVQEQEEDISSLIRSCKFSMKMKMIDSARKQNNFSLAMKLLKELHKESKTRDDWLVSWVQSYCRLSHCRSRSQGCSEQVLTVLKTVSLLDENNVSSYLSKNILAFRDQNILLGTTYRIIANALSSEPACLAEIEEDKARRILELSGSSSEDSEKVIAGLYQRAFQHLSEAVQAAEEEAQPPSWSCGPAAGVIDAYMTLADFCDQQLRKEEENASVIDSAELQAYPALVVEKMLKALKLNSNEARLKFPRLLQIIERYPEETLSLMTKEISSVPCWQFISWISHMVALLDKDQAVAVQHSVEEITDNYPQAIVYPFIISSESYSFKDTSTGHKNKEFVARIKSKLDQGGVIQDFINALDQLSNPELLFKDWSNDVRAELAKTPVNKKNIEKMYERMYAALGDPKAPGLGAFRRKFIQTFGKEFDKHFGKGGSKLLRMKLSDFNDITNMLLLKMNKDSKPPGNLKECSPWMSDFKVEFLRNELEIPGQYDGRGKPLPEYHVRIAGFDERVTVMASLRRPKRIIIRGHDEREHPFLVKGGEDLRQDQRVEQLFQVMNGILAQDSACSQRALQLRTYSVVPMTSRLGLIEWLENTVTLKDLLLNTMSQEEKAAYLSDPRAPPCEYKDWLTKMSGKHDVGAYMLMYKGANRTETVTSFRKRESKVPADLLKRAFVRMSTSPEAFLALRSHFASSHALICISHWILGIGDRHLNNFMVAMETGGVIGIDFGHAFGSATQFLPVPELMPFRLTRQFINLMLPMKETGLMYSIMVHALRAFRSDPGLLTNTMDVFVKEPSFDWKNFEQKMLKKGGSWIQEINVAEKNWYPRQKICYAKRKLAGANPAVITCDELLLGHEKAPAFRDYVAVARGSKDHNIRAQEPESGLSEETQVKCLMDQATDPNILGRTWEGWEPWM

Row | Structure (SMILES) | pIC50 [1] | pIC50 [2] | Ratio [3] | Ratio [4]
1 | CC1(COc2cc(-c3cccc4c(=O)cc(N5CCOCC5)oc34)ccc2NC(=O)CN2CCOCC2)COC1 | 6.16 | 6.52 |  | 
2 | O=C(CN1CCOCC1)Nc1ccc(-c2cccc3c(=O)cc(N4CCOCC4)oc23)cc1O | 7.10 | 6.37 |  | 
3 | CC(C)Oc1cc(-c2cccc3c(=O)cc(N4CCOCC4)oc23)ccc1NC(=O)CN1CCOCC1 | 6.48 | 6.54 |  | 
4 | CC(C)COc1cc(-c2cccc3c(=O)cc(N4CCOCC4)oc23)ccc1NC(=O)CN1CCOCC1 | 6.74 | 6.82 |  | 
5 | COCCOc1cc(-c2cccc3c(=O)cc(N4CCOCC4)oc23)ccc1NC(=O)CN1CCOCC1 | 5.59 | 5.82 |  | 
6 | O=C(CN1CCOCC1)Nc1ccc(-c2cccc3c(=O)cc(N4CCOCC4)oc23)cc1OCCN1CCCC1 | < 5.00 | 5.36 |  | 
7 | O=C(CN1CCOCC1)Nc1ccc(-c2cccc3c(=O)cc(N4CCOCC4)oc23)cc1-c1ccccc1 | 7.85 |  | 8 | 11
8 | O=c1cc(N2CCOCC2)oc2c(-c3cccc4c3sc3ccccc34)cccc12 | 7.55 | 6.89 |  | 
9 | O=c1cc(N2CCOCC2)oc2c(-c3ccccc3)cccc12 [LY-294002] | 5.89 |  |  | 

Second part, led by results:

Row | pIC50 [1] | pIC50 [2] | Structure (SMILES) | Ratio [3] | Ratio [4]
10 | 8.10 | 7.15 | O=C(CN1CCOCC1)Nc1ccc(-c2cccc3c(=O)cc(N4CCOCC4)oc23)cc1OCC1CC1 |  | 
11 | 6.54 | 6.46 | COc1cc(-c2cccc3c(=O)cc(N4CCOCC4)oc23)ccc1NC(=O)CN1CCOCC1 |  | 
12 | 6.55 | 6.33 | CCOc1cc(-c2cccc3c(=O)cc(N4CCOCC4)oc23)ccc1NC(=O)CN1CCOCC1 |  | 
13 | 6.77 | 6.82 | C=CCOc1cc(-c2cccc3c(=O)cc(N4CCOCC4)oc23)ccc1NC(=O)CN1CCOCC1 |  | 
14 | 5.48 | 5.96 | NC(=O)COc1cc(-c2cccc3c(=O)cc(N4CCOCC4)oc23)ccc1NC(=O)CN1CCOCC1 |  | 
15 | 6.80 | 6.54 | O=C(CN1CCOCC1)Nc1ccc(-c2cccc3c(=O)cc(N4CCOCC4)oc23)cc1OCC1CCC1 |  | 
16 | 6.30 | 6.40 | O=C(CN1CCOCC1)Nc1ccc(-c2cccc3c(=O)cc(N4CCOCC4)oc23)cc1OCCC1CC1 |  | 
17 | 6.96 | 6.57 | CC1(COc2cc(-c3cccc4c(=O)cc(N5CCOCC5)oc34)ccc2NC(=O)CN2CCOCC2)CCC1 |  | 
18 | 6.00 | 5.80 | O=C(CN1CCOCC1)Nc1ccc(-c2cccc3c(=O)cc(N4CCOCC4)oc23)cc1OCCO |  | 
19 | 4.92 | 5.52 | NCCOc1cc(-c2cccc3c(=O)cc(N4CCOCC4)oc23)ccc1NC(=O)CN1CCOCC1 |  | 
